In patent publication US20260356834A1, “ANTICONVULSIVE COMPOUNDS AND USES THEREOF” (Jazz Pharmaceuticals Research UK Limite, priority 2023, published 2026):
Where “and” joins values, the source holds several entries; their conditions need not be identical. Identical values can stand only once. Like-named read-outs stand apart in the source and are kept apart here. Marks after values point to notes of the source that are not given here.

What was measured:
CB1 = details: cited from earlier work
[1] = in vivo; cited from earlier work
CB2 receptors = details: cited from earlier work
RjOrl: Swiss mice [2] = details: 44 mA; Klein et al., 2017; cited from earlier work
C57BL/6J mice [3] = test: mouse maximal electroshock seizure threshold model (MEST); type: in vivo; details: 30 min
Experimental: Vehicle=1:2:17 ethanol:Solutol® (Kolliphor® HS 15):saline: 1 mL of ethanol and 2 mL of solutol were warmed to 60 °C and 17 mL of 0.9% saline was added slowly. […]
Vehicle=0.5% HPMC and 0.1% Tween 80:0.5% HPMC and 0.1% Tween 80 in water.

C57BL/6J mice [4] = details: mouse, in vivo; cited from earlier work
C57BL/6J mice [5] = details: mouse, in vivo; cited from earlier work; remark: listed apart in the source
DBA/2 mice [6] = details: De Sarro et al., 2017; cited from earlier work
DBA/2 mice [7] = test: mouse audiogenic seizure test; type: in vivo; details: 180 mg/kg i.p., 30 min
From the text: The Audiogenic Seizure Test, which detects anticonvulsant activity, follows that described by Durmüller et al., 1993. Mice of the DBA/2 strain undergo an age-dependent sequence of convulsions (wild-running, clonic convulsion, tonic convulsion and respiratory arrest) within 60 seconds of exposure to a loud sound of 110-120 dB. The type of convulsions are consistent with aspects of generalised seizure in humans.
Male DBA/2 mice (3-4 weeks old) were supplied by Janvier Labs (53940 Le Genest-Saint-Isle, France); weight range 6-13 g at the beginning of the experiment. Animals were acclimatized to the Test Facility for 1 day after delivery and randomly housed in groups of 5 in macrolon cages on wood litter with free access to food and water.
(§1) The animal house was maintained under artificial lighting (12 hours) between 7:00 and 19:00 in a controlled ambient temperature of 22±2 °C and relative humidity between 30-70%.
Mice were individually transferred (at 3-5 minutes intervals) from the preparation room into an adjacent experimental room and body temperature was measured using a rectal thermometer (Digital Laboratory Thermometer: Model BAT-12). Immediately after, they were placed in a Plexiglas jar (Diameter=40 cm; Height=35 cm) mounted with an electric bell (110-120 dB, supplier Leroy Merlin, France). Upon activating the bell, the occurrences and latencies to wild running fits, clonic and tonic seizures were measured. Deaths were also recorded. The bell was activated until a tonic seizure occurred, or for a maximum of 60 seconds.
The experiment included groups of 10 mice per group. Experimenters were only partially blinded to treatment group as pre-treatment times were different.
The test substance was evaluated at various doses, administered i.p. (10 ml/kg) 15 or 30 minutes before the test, and compared with a vehicle control group.
Due to the number of animals tested, the experiment was divided in 2 sub-experiments on 2 separate days (7 days apart) with 5 mice per group in each sub-experiment.
Data were tested for normality using d'Agostino-Pearson Test and found to not follow a normal distribution. Statistical outliers were not identified or removed because no behavioural outliers were identified. Quantitative data (latencies) with the test substance were analyzed by comparing treated groups with vehicle control using Kruskal-Wallis test followed by Dunn's multiple comparisons test. Quantitative data with the reference substance were analyzed using Mann-Whitney U test. Quantal data (frequencies) were analyzed by comparing treated groups with vehicle control using Fisher's Exact Probability test.

RjOrl: Swiss mice [8] = test: mouse 6 Hz (44 mA) model of partial seizures; type: in vivo; details: 200 mg/kg i.p., 30 min; vs vehicle (HPMC)
RjOrl: Swiss mice [9] = test: mouse 6 Hz (44 mA) model of partial seizures; type: in vivo; details: 200 mg/kg i.p., 30 min
From the text: The 6 Hz (44 mA) model of partial seizures, which detects anticonvulsant activity, follows that described by Brown et al. 1953.
[…] A decrease in forelimb clonus score is indicative of protection from seizure and an anticonvulsive effect.
When conducted at a 44 mA stimulus intensity in mice, the 6 Hz test can differentiate compounds with potential for the treatment of focal-onset seizures that are often resistant to current anti-epileptic drugs.
Male RjOrl: Swiss mice (Janvier Labs, 53940 Le Genest-Saint-Isle, France), 5 weeks old, weighing 27-38 g at the beginning of the experiment. Animals were acclimatized to the Test Facility for at least 5 days after delivery and randomly housed in groups of 5 to 8 in macrolon cages on wood litter with free access to food and water.
as §1
Before transcorneal stimulation, a drop of tetracaine solution (1%) was applied on each eye of the mouse for local anesthesia. Between 1-10 minutes later and at the designated pre-treatment (see below), the mice were administered a rectangular current (44 mA, rectangular pulse: 0.2 ms pulse width, 3 s duration, (6 Hz) via corneal electrodes connected to a constant current shock generator (Ugo Basile: type 7801).
The results for the number of seizures as reflected by forelimb clonus were recorded immediately after current administration. Forelimb clonus was scored as absent (0=no forelimb clonus), mild (1=clonus with one forelimb) and strong (2=clonus with both forelimbs). The experimenters were blinded to the treatment. […]
The administration volume was 10 mL/kg.
Due to the number of animals tested, the experiment was divided in 2 sub-experiments on 2 consecutive days with equivalent numbers of mice per group and per sub-experiment.
Data were discrete values so considered to be non-normally distributed based on validation data, therefore non-parametric tests were utilized. Quantitative data (scores) with the test substance were analyzed by comparing test compound-treated groups with the 1:2:17 vehicle control using Kruskal-Wallis test with Dunn's multiple comparisons test when the Kruskal-Wallis test was significant. Quantitative data with the reference substance were analyzed using Mann-Whitney U test as compared to saline vehicle.

C=C(C)[C@@H]1CCC(C)=C[C@H]1c1c(O)cc(CCCCC)cc1O [CBD, cannabidiol]
binding to CB1 (CB1): does not bind
psychotropic effects associated with cannabis [1]: does not induce the psychotropic effects
binding to CB2 receptors (CB2 receptors): does not bind
anticonvulsive effects in the 6 Hz test (RjOrl: Swiss mice [2]): exhibit anticonvulsive effects

CN1C(=O)CN=C(c2ccccc2)c2cc(Cl)ccc21 [Diazepam, diazepam, reference compound]
Change from vehicle (CC50) (C57BL/6J mice [3]; 2.5 mg/kg i.p., vs 1:1:18 ethanol:Kolliphor EL:saline vehicle): 406%^###
Change from vehicle (CC50) (C57BL/6J mice [3]; 2.5 mg/kg i.p., vs 1:2:17 ethanol:Solutol:saline vehicle): 439%^###
Change from vehicle (CC50) (C57BL/6J mice [3]; 2.5 mg/kg i.p., vs HPMC vehicle): 652%*** and 526%***
anticonvulsive properties in the MEST test (C57BL/6J mice [4]): exhibit anticonvulsive properties
anticonvulsive properties in the MEST test (C57BL/6J mice [5]): exhibit anticonvulsive properties

CCCC(CCC)C(=O)[O-].[Na+] [Sodium Valproate, sodium valproate, reference compound]
protection from clonic convulsions, tonic convulsions and respiratory arrest (DBA/2 mice [6]): protect DBA/2 mice from clonic convulsions, tonic convulsions and respiratory arrest
CC50 +/− SEM (C57BL/6J mice [3]; 150 mg/kg i.p., 1:1:18 ethanol:Kolliphor EL:saline): 139.2 ± 2.1 mA
CC50 +/− SEM (C57BL/6J mice [3]; 150 mg/kg i.p., 1:2:17 ethanol:Solutol:saline): 104.2 ± 1.0 mA
CC50 +/− SEM (C57BL/6J mice [3]; 150 mg/kg i.p., study with HPMC vehicle): >300.0 mA and 215.8 ± 30.1 mA
Change from vehicle (CC50) (C57BL/6J mice [3]; 150 mg/kg i.p., vs 1:1:18 ethanol:Kolliphor EL:saline vehicle): 457%^###
Change from vehicle (CC50) (C57BL/6J mice [3]; 150 mg/kg i.p., vs 1:2:17 ethanol:Solutol:saline vehicle): 346%^###
Change from vehicle (CC50) (C57BL/6J mice [3]; 150 mg/kg i.p., vs HPMC vehicle): >1043%*** and 714%***
Clonic convulsion - presence, % (DBA/2 mice [7]): 30%
Tonic convulsion - presence, % (DBA/2 mice [7]): 0%
Wild running - presence, % (DBA/2 mice [7]): 30%
latencies to clonic convulsions (significance in words) (DBA/2 mice [7]): significantly increased
latencies to tonic convulsions (significance in words) (DBA/2 mice [7]): significantly increased
latencies to wild running (significance in words) (DBA/2 mice [7]): significantly increased
number of mice displaying clonic convulsions (significance in words) (DBA/2 mice [7]): significantly decreased
number of mice displaying tonic convulsions (significance in words) (DBA/2 mice [7]): significantly decreased
number of mice displaying wild running (significance in words) (DBA/2 mice [7]): significantly decreased
Clonic convulsion - presence, Total (DBA/2 mice [7]; number of mice, n = 10): 1
Tonic convulsion - presence, Total (DBA/2 mice [7]; number of mice, n = 10): 0
Wild running - presence, Total (DBA/2 mice [7]; number of mice, n = 10): 1
Change from vehicle (forelimb clonus) (RjOrl: Swiss mice [8]): −60%***
Change from vehicle 1 (forelimb clonus) (RjOrl: Swiss mice [9]; vs vehicle 1 (saline)): −82%***
Change from vehicle 2 (forelimb clonus) (RjOrl: Swiss mice [9]; vs vehicle 2 (1:2:17 ethanol:Kolliphor HS15:saline)): −89%***

NC(=O)N1c2ccccc2C=Cc2ccccc21 [carbamazepine]
protection from clonic convulsions, tonic convulsions and respiratory arrest (DBA/2 mice [6]): protect DBA/2 mice from clonic convulsions, tonic convulsions and respiratory arrest
